Usually Ki stands for the dissociation constant of the complex between target and ligand, obtained from inhibition or displacement. Low values mean a stronger hold on the target, high ones a looser hold on the target.

Bounds are passed on as bounds.

The target of this experiment is human capsaicin receptor (VR1) (Homo sapiens, UniProt Q8NER1). Nature of the experiment: Capsaicin receptor binding assay ([3H]RTX competition, VR1-transfected HEK293 membranes).
human capsaicin receptor (VR1), sequence (Q8NER1 whole entry): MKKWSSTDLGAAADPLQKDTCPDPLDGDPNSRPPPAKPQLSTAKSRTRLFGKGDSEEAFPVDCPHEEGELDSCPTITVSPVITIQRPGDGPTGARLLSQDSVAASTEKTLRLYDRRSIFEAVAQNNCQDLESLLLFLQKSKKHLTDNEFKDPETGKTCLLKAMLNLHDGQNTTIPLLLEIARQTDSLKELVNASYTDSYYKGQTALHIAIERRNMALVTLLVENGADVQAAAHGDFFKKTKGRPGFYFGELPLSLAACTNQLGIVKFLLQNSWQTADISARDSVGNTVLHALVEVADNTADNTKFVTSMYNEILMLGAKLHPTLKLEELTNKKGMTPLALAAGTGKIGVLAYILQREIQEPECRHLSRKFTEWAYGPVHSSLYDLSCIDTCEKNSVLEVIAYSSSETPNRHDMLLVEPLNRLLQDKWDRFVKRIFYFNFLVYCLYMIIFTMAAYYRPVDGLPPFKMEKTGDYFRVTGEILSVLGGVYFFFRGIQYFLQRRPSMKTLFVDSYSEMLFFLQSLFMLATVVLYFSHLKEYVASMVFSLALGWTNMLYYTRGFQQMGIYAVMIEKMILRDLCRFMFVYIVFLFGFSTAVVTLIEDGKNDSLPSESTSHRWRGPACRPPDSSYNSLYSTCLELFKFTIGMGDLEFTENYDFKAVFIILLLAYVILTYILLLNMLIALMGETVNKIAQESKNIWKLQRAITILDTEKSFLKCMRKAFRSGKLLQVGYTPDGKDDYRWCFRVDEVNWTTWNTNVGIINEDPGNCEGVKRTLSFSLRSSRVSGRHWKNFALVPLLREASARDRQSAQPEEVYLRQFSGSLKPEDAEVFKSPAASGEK
Turning to `CNC(=O)c1nc(Nc2ccc(C(F)(F)F)cc2)c2ccc(-c3ncccc3C(F)(F)F)cc2n1` [Compound 708, 4-(4-Trifluoromethyl-phenylamino)-7-(3-trifluoromethyl-pyridin-2-yl)-quinazoline-2-carboxylic acid methylamide], the Ki is under 1000 nM.

In turn, `O=C(NCCN1CCOCC1)c1nc(Nc2ccc(C(F)(F)F)cc2)c2ccc(-c3ncccc3C(F)(F)F)cc2n1` [Compound 709, 4-(4-Trifluoromethyl-phenylamino)-7-(3-trifluoromethyl-pyridin-2-yl)-quinazoline-2-carboxylic acid (2-morpholin-4-yl-ethyl)-amide] came in with a Ki of under 1000 nM.

In turn, `C[C@@H]1CN(Cc2nc(Nc3ccc(C4CC4)cc3)c3ccc(-c4ncccc4C(F)(F)F)cc3n2)C[C@H](C)O1` [Compound 710, (4-Cyclopropyl-phenyl)-[2-(2,6-dimethyl-morpholin-4-ylmethyl)-7-(3-trifluoromethyl-pyridin-2-yl)-quinazolin-4-yl]-amine (cis)] showed a Ki of under 1000 nM.

The molecule `Cc1cccnc1-c1ccc2c(Nc3ccc(C(C)C)cc3)nc(CN(C)C)nc2c1` [Compound 711, [2-Dimethylaminomethyl-7-(3-methyl-pyridin-2-yl)-quinazolin-4-yl]-(4-isopropyl-phenyl)-amine] showed a Ki of under 1000 nM.

Take `Cc1cccnc1-c1ccc2c(Nc3ccc(C(C)C)cc3)nc(CN3CCOCC3)nc2c1` [Compound 712, (4-Isopropyl-phenyl)-[7-(3-methyl-pyridin-2-yl)-2-morpholin-4-ylmethyl-quinazolin-4-yl]-amine]: the Ki is under 1000 nM.

Regarding `Cc1cccnc1-c1ccc2c(Nc3ccc(C(C)C)cc3)nc(CN3CCSCC3)nc2c1` [Compound 713, (4-Isopropyl-phenyl)-[7-(3-methyl-pyridin-2-yl)-2-thiomorpholin-4-ylmethyl-quinazolin-4-yl]-amine], the Ki is under 1000 nM.

`Cc1cccnc1-c1ccc2c(Nc3ccc(C(C)C)cc3)nc(CN3CCCC(C)(C)C3)nc2c1` [Compound 714, [2-(3,3-Dimethyl-piperidin-1-ylmethyl)-7-(3-methyl-pyridin-2-yl)-quinazolin-4-yl]-(4-isopropyl-phenyl)-amine] had a Ki of under 1000 nM.

`CCCN(CC)Cc1nc(Nc2ccc(C(C)C)cc2)c2ccc(-c3ncccc3C)cc2n1` [Compound 715, [2-[(Ethyl-propyl-amino)-methyl]-7-(3-methyl-pyridin-2-yl)-quinazolin-4-yl]-(4-isopropyl-phenyl)-amine]: the Ki is under 1000 nM.

On to `CCCN(C)Cc1nc(Nc2ccc(C(C)C)cc2)c2ccc(-c3ncccc3C)cc2n1` [Compound 716, (4-Isopropyl-phenyl)-[2-[(methyl-propyl-amino)-methyl]-7-(3-methyl-pyridin-2-yl)-quinazolin-4-yl]-amine], for which the Ki is under 1000 nM.

`CCN(Cc1nc(Nc2ccc(C(C)C)cc2)c2ccc(-c3ncccc3C)cc2n1)C(C)C` [Compound 717, [2-[(Ethyl-isopropyl-amino)-methyl]-7-(3-methyl-pyridin-2-yl)-quinazolin-4-yl]-(4-isopropyl-phenyl)-amine] yielded a Ki of under 1000 nM.

Regarding `Cc1cccnc1-c1ccc2c(Nc3ccc(C(C)C)cc3)nc(CN(C)C(C)C)nc2c1` [Compound 718, [2-[(Isopropyl-methyl-amino)-methyl]-7-(3-methyl-pyridin-2-yl)-quinazolin-4-yl]-(4-isopropyl-phenyl)-amine], the Ki was under 1000 nM.

In turn, `COCCN(CCOC)Cc1nc(Nc2ccc(C(C)C)cc2)c2ccc(-c3ncccc3C)cc2n1` [Compound 719, [2-{[Bis-(2-methoxy-ethyl)-amino]-methyl}-7-(3-methyl-pyridin-2-yl)-quinazolin-4-yl]-(4-isopropyl-phenyl)-amine] showed an inhibition constant (Ki) of under 1000 nM.

With `C[C@@H]1CN(Cc2nc(Nc3ccc(S(=O)(=O)N4CCOCC4)cc3)c3ncc(-c4ncccc4Cl)cc3n2)C[C@H](C)O1` [Compound 720, [7-(3-Chloro-pyridin-2-yl)-2-(2,6-dimethyl-morpholin-4-ylmethyl)-pyrido[3,2-d]pyrimidin-4-yl]-[4-(morpholine-4-sulfonyl)-phenyl]-amine (cis)], the Ki was under 1000 nM.

As for `CN(C)Cc1nc(Nc2ccc(S(=O)(=O)N3CCOCC3)cc2)c2ccc(-c3ncccc3C(F)(F)F)cc2n1` [Compound 721, [2-Dimethylaminomethyl-7-(3-trifluoromethyl-pyridin-2-yl)-quinazolin-4-yl]-[4-(morpholine-4-sulfonyl)-phenyl]-amine], the Ki is under 1000 nM.

As for `CC(C)N(C)Cc1nc(Nc2ccc(S(=O)(=O)N3CCOCC3)cc2)c2ccc(-c3ncccc3C(F)(F)F)cc2n1` [Compound 723, [2-[(Isopropyl-methyl-amino)-methyl]-7-(3-trifluoromethyl-pyridin-2-yl)-quinazolin-4-yl]-[4-(morpholine-4-sulfonyl)-phenyl]-amine], the inhibition constant Ki is under 1000 nM.

With `CCCN(CC)Cc1nc(Nc2ccc(S(=O)(=O)N3CCOCC3)cc2)c2ccc(-c3ncccc3C(F)(F)F)cc2n1` [Compound 724, [2-[(Ethyl-propyl-amino)-methyl]-7-(3-trifluoromethyl-pyridin-2-yl)-quinazolin-4-yl]-[4-(morpholine-4-sulfonyl)-phenyl]-amine], the Ki is under 1000 nM.

On to `CCOCN(COCC)Cc1nc(Nc2ccc(C(F)(F)F)cc2)c2ccc(-c3ncccc3C)cc2n1` [Compound 725, [2-[(Bis-ethoxymethyl-amino)-methyl]-7-(3-methyl-pyridin-2-yl)-quinazolin-4-yl]-(4-trifluoromethyl-phenyl)-amine], for which the Ki was under 1000 nM.

Regarding `CCCN(CCC)Cc1nc(Nc2ccc(C(F)(F)F)cc2)c2ccc(-c3ncccc3C)cc2n1` [Compound 726, [2-Dipropylaminomethyl-7-(3-methyl-pyridin-2-yl)-quinazolin-4-yl]-(4-trifluoromethyl-phenyl)-amine], the Ki is under 1000 nM.

`Cc1cccnc1-c1ccc2c(Nc3ccc(C(F)(F)F)cc3)nc(C3CN(C(=O)OC(C)(C)C)C3)nc2n1` [Compound 727, 3-[7-(3-Methyl-pyridin-2-yl)-4-(4-trifluoromethyl-phenylamino)-pyrido[2,3-d]pyrimidin-2-yl]-azetidine-1-carboxylic acid tert-butyl ester] showed a Ki of under 1000 nM.

`O=C(O)C1CCN(Cc2nc(Nc3ccc(C(F)(F)F)cc3)c3ccc(-c4ncccc4C(F)(F)F)cc3n2)CC1` [Compound 728, 1-[4-(4-Trifluoromethyl-phenylamino)-7-(3-trifluoromethyl-pyridin-2-yl)-quinazolin-2-ylmethyl]-piperidine-4-carboxylic acid]: the Ki is under 1000 nM.

The molecule `O=C(O)C1CCCN(Cc2nc(Nc3ccc(C(F)(F)F)cc3)c3ccc(-c4ncccc4C(F)(F)F)cc3n2)C1` (stereo not shown) [Compound 729, 1-[4-(4-Trifluoromethyl-phenylamino)-7-(3-trifluoromethyl-pyridin-2-yl)-quinazolin-2-ylmethyl]-piperidine-3-carboxylic acid] showed a Ki of under 1000 nM.

Molecule `O=C(O)[C@@H]1CCCN1Cc1nc(Nc2ccc(C(F)(F)F)cc2)c2ccc(-c3ncccc3C(F)(F)F)cc2n1` [Compound 730, (S)-1-[4-(4-Trifluoromethyl-phenylamino)-7-(3-trifluoromethyl-pyridin-2-yl)-quinazolin-2-ylmethyl]-pyrrolidine-2-carboxylic acid] yielded a Ki of under 1000 nM.

Source of the values: patent US20040156869A1, “2-substituted quinazolin-4-ylamine analogues” (Neurogen Corporation, priority 2002, published 2004).
